According to US20250324971A1, “HERBICIDAL DERIVATIVES” (SYNGENTA CROP PROTECTION AG, priority 2022, published 2025):

Columns and labels:
Assay type in all cases: in vivo
Setaria faberi (SETFA) [1] = experiment: Pre-Emergence Test (herbicidal, glasshouse pots); conditions: evaluated after 13 days, five-point scale
[2] = system: Ipomoea hederacea (IPOHE); experiment: Pre-Emergence Test (herbicidal, glasshouse pots); conditions: evaluated after 13 days, five-point scale
[3] = system: Echinochloa crus-galli (ECHCG); experiment: Pre-Emergence Test (herbicidal, glasshouse pots); conditions: evaluated after 13 days, five-point scale
[4] = system: Amaranthus retoflexus (AMARE); experiment: Pre-Emergence Test (herbicidal, glasshouse pots); conditions: evaluated after 13 days, five-point scale
Zea mays (ZEAMX) [5] = experiment: Pre-Emergence Test (herbicidal, glasshouse pots); conditions: evaluated after 13 days, five-point scale
[6] = system: Amaranthus palmeri (AMAPA); experiment: Pre-Emergence Test (herbicidal, glasshouse pots); conditions: evaluated after 13 days, five-point scale
[7] = system: Amaranthus palmeri (AMAPA); experiment: Post-Emergence Test (herbicidal, glasshouse pots); conditions: evaluated after 13 days
How it was run: (§1)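 Damage after 13 days is given as a five-point score, where 5 means 81-100% and 1 means 0-20% injury. Seed-sown pots were treated by spray with the technical ingredient in aqueous acetone (50:50) with 0.5% Tween 20, dose expressed in g/ha.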

[8] = system: Amaranthus retoflexus (AMARE); experiment: Post-Emergence Test (herbicidal, glasshouse pots); conditions: evaluated after 13 days
How it was run: as §1

[9] = system: Echinochloa crus-galli (ECHCG); experiment: Post-Emergence Test (herbicidal, glasshouse pots); conditions: evaluated after 13 days
How it was run: as §1

[10] = system: Ipomoea hederacea (IPOHE); experiment: Post-Emergence Test (herbicidal, glasshouse pots); conditions: evaluated after 13 days
How it was run: as §1

Setaria faberi (SETFA) [11] = experiment: Post-Emergence Test (herbicidal, glasshouse pots); conditions: evaluated after 13 days
How it was run: as §1

Zea mays (ZEAMX) [12] = experiment: Post-Emergence Test (herbicidal, glasshouse pots); conditions: evaluated after 13 days
How it was run: as §1

| SMILES | percentage damage caused to the plant, SETFA (Setaria faberi (SETFA) [1]; rate 1000 g/ha) | percentage damage caused to the plant, IPHOE ([2]; rate 1000 g/ha) | percentage damage caused to the plant, ECHCG ([3]; rate 1000 g/ha) | percentage damage caused to the plant, AMARE ([4]; rate 1000 g/ha) | percentage damage caused to the plant, ZEAMX (Zea mays (ZEAMX) [5]; rate 1000 g/ha) | percentage damage caused to the plant, AMAPA ([6]; rate 1000 g/ha) | Post-Emergence Test AMAPA percentage damage (five-point scale) ([7]; rate 1000 g/ha) | Post-Emergence Test AMARE percentage damage (five-point scale) ([8]; rate 1000 g/ha) | Post-Emergence Test ECHCG percentage damage (five-point scale) ([9]; rate 1000 g/ha) | Post-Emergence Test IPHOE percentage damage (five-point scale) ([10]; rate 1000 g/ha) | Post-Emergence Test SETFA percentage damage (five-point scale) (Setaria faberi (SETFA) [11]; rate 1000 g/ha) | Post-Emergence Test ZEAMX percentage damage (five-point scale) (Zea mays (ZEAMX) [12]; rate 1000 g/ha) | also measured |
| --- | --- | --- | --- | --- | --- | --- | --- | --- | --- | --- | --- | --- | --- |
| CCn1c(Oc2ccc(OC(F)(F)F)cc2)cc(=O)c(C(=O)O)c1-c1ccc(Cl)c(Cl)c1 [Compound 20, 2-(3,4-dichlorophenyl)-1-ethyl-4-oxo-6-[4-(trifluoromethoxy)phenoxy]pyridine-3-carboxylic acid] | 5 (5=81-100%) | 2 (2=21-40%) | 5 (5=81-100%) | 4 (4=61-80%) | 3 (3=41-60%) | 4 (4=61-80%) | 3 (3=41-60%) | 4 (4=61-80%) | 4 (4=61-80%) | 3 (3=41-60%) | 5 (5=81-100%) | 3 (3=41-60%) | – |
| CCn1c(Oc2ccc(OC)c(OC)c2)cc(=O)c(C(=O)O)c1-c1ccc(Cl)c(Cl)c1 [Compound 21, 2-(3,4-dichlorophenyl)-6-(3,4-dimethoxyphenoxy)-1-ethyl-4-oxo-pyridine-3-carboxylic acid] | 4 (4=61-80%) | 3 (3=41-60%) | 2 (2=21-40%) | 1 (1=0-20%) | 1 (1=0-20%) | 1 (1=0-20%) | 3 (3=41-60%) | 4 (4=61-80%) | 1 (1=0-20%) | 3 (3=41-60%) | 5 (5=81-100%) | 1 (1=0-20%) | – |
| CCn1c(Oc2ccc(C(F)(F)F)cc2)cc(=O)c(C(=O)O)c1-c1ccc(Cl)c(Cl)c1 [Compound 27, 2-(3,4-dichlorophenyl)-1-ethyl-4-oxo-6-[4-(trifluoromethyl)phenoxy]pyridine-3-carboxylic acid] | – | – | – | – | – | – | – | – | – | – | – | – | percentage damage caused to the plant, SETFA (Setaria faberi (SETFA) [1]; rate 250 g/ha): 4 (4=61-80%); percentage damage caused to the plant, IPHOE ([2]; rate 250 g/ha): 0; percentage damage caused to the plant, ECHCG ([3]; rate 250 g/ha): 1 (1=0-20%); percentage damage caused to the plant, AMARE ([4]; rate 250 g/ha): 1 (1=0-20%); percentage damage caused to the plant, ZEAMX (Zea mays (ZEAMX) [5]; rate 250 g/ha): 0; percentage damage caused to the plant, AMAPA ([6]; rate 250 g/ha): 1 (1=0-20%); Post-Emergence Test AMAPA percentage damage (five-point scale) ([7]; rate 250 g/ha): 4 (4=61-80%); Post-Emergence Test AMARE percentage damage (five-point scale) ([8]; rate 250 g/ha): 4 (4=61-80%); Post-Emergence Test ECHCG percentage damage (five-point scale) ([9]; rate 250 g/ha): 4 (4=61-80%); Post-Emergence Test IPHOE percentage damage (five-point scale) ([10]; rate 250 g/ha): 4 (4=61-80%); Post-Emergence Test SETFA percentage damage (five-point scale) (Setaria faberi (SETFA) [11]; rate 250 g/ha): 5 (5=81-100%); Post-Emergence Test ZEAMX percentage damage (five-point scale) (Zea mays (ZEAMX) [12]; rate 250 g/ha): 2 (2=21-40%) |
| CCn1c(Oc2ccc(F)c(F)c2)cc(=O)c(C(=O)O)c1-c1ccc(Cl)c(Cl)c1 [Compound 28, 2-(3,4-dichlorophenyl)-6-(3,4-difluorophenoxy)-1-ethyl-4-oxo-pyridine-3-carboxylic acid] | 5 (5=81-100%) | 4 (4=61-80%) | 4 (4=61-80%) | 5 (5=81-100%) | 4 (4=61-80%) | 4 (4=61-80%) | 4 (4=61-80%) | 4 (4=61-80%) | 4 (4=61-80%) | 3 (3=41-60%) | 4 (4=61-80%) | 4 (4=61-80%) | – |
| CCn1c(Oc2cc(F)ccc2Cl)cc(=O)c(C(=O)O)c1-c1ccc(Cl)c(Cl)c1 [Compound 35, 6-(2-chloro-5-fluoro-phenoxy)-2-(3,4-dichlorophenyl)-1-ethyl-4-oxo-pyridine-3-carboxylic acid] | 5 (5=81-100%) | 0 | 5 (5=81-100%) | 1 (1=0-20%) | 1 (1=0-20%) | 0 | 3 (3=41-60%) | 3 (3=41-60%) | 4 (4=61-80%) | 2 (2=21-40%) | 4 (4=61-80%) | 2 (2=21-40%) | – |
| CCn1c(Oc2ccn(C)n2)cc(=O)c(C(=O)O)c1-c1ccc(Cl)c(Cl)c1 [Compound 37, 2-(3,4-dichlorophenyl)-1-ethyl-6-(1-methylpyrazol-3-yl)oxo-4-oxo-pyridine-3-carboxylic acid] | – | – | – | – | – | – | – | – | – | – | – | – | percentage damage caused to the plant, SETFA (Setaria faberi (SETFA) [1]; rate 62.5 g/ha): 5 (5=81-100%); percentage damage caused to the plant, IPHOE ([2]; rate 62.5 g/ha): 3 (3=41-60%); percentage damage caused to the plant, ECHCG ([3]; rate 62.5 g/ha): 4 (4=61-80%); percentage damage caused to the plant, AMARE ([4]; rate 62.5 g/ha): 2 (2=21-40%); percentage damage caused to the plant, ZEAMX (Zea mays (ZEAMX) [5]; rate 62.5 g/ha): 3 (3=41-60%); percentage damage caused to the plant, AMAPA ([6]; rate 62.5 g/ha): 2 (2=21-40%); Post-Emergence Test AMAPA percentage damage (five-point scale) ([7]; rate 62.5 g/ha): 4 (4=61-80%); Post-Emergence Test AMARE percentage damage (five-point scale) ([8]; rate 62.5 g/ha): 4 (4=61-80%); Post-Emergence Test ECHCG percentage damage (five-point scale) ([9]; rate 62.5 g/ha): 4 (4=61-80%); Post-Emergence Test IPHOE percentage damage (five-point scale) ([10]; rate 62.5 g/ha): 3 (3=41-60%); Post-Emergence Test SETFA percentage damage (five-point scale) (Setaria faberi (SETFA) [11]; rate 62.5 g/ha): 4 (4=61-80%); Post-Emergence Test ZEAMX percentage damage (five-point scale) (Zea mays (ZEAMX) [12]; rate 62.5 g/ha): 4 (4=61-80%) |
| CCn1c(Oc2ccc(Cl)cn2)cc(=O)c(C(=O)O)c1-c1ccc(Cl)c(Cl)c1 [Compound 38, 6-[(5-chloro-2-pyridyl)oxy]-2-(3,4-dichlorophenyl)-1-ethyl-4-oxo-pyridine-3-carboxylic acid] | – | – | – | – | – | – | – | – | – | – | – | – | percentage damage caused to the plant, SETFA (Setaria faberi (SETFA) [1]; rate 250 g/ha): 5 (5=81-100%); percentage damage caused to the plant, IPHOE ([2]; rate 250 g/ha): 4 (4=61-80%); percentage damage caused to the plant, ECHCG ([3]; rate 250 g/ha): 5 (5=81-100%); percentage damage caused to the plant, AMARE ([4]; rate 250 g/ha): 3 (3=41-60%); percentage damage caused to the plant, ZEAMX (Zea mays (ZEAMX) [5]; rate 250 g/ha): 4 (4=61-80%); percentage damage caused to the plant, AMAPA ([6]; rate 250 g/ha): 2 (2=21-40%); Post-Emergence Test AMAPA percentage damage (five-point scale) ([7]; rate 250 g/ha): 4 (4=61-80%); Post-Emergence Test AMARE percentage damage (five-point scale) ([8]; rate 250 g/ha): 4 (4=61-80%); Post-Emergence Test ECHCG percentage damage (five-point scale) ([9]; rate 250 g/ha): 3 (3=41-60%); Post-Emergence Test IPHOE percentage damage (five-point scale) ([10]; rate 250 g/ha): 4 (4=61-80%); Post-Emergence Test SETFA percentage damage (five-point scale) (Setaria faberi (SETFA) [11]; rate 250 g/ha): 4 (4=61-80%); Post-Emergence Test ZEAMX percentage damage (five-point scale) (Zea mays (ZEAMX) [12]; rate 250 g/ha): 4 (4=61-80%) |
